Laboratory results as given in patent US10428071B2, “Carboline derivative serving as bromodomain inhibitor” (NINGBO WENDA PHARMA TECHNOLOY LTD., priority 2016, dated 2019).

Columns and labels:
[1] = molecular target: T1, BRD4 (BD1+BD2) bromodomain protein (Homo sapiens, UniProt O60885); assay: TR-FRET BRD4 activity assay (Cayman kit); type: binding; conditions: room temperature 2 hours
T1 construct: BRD4 (BD1+BD2) bromodomain protein; purchased Cayman
Protocol: Detection of TR-FRET BRD4 Activity:
The BRD4 activity assay was performed according to the TR-FRET method in the Cayman kit. Dilute 3×BRD TR-FRET Assay Buffer 1 with ultrapure water to 1×BRD TR-FRET Assay Buffer for further use. 1×BRD TR-FRET Assay Buffer was used to dilute Tb-labeled donor and dye-labeled acceptor in 100-fold. 5 μl of diluted Tb-labeled donor and dye-labeled acceptor were added respectively to the sample well, negative control well and positive control well. The configured 1×BRD TR-FRET Assay Buffer was used to formulate a 10% DMSO solution (excessive DMSO concentration would affect the reaction, and the final concentration of DMSO was controlled at 1%), then test compounds are diluted with 10% DMSO solution to give the compound's initial concentrations of 1 μM and 100 nM, IC50 test was started from 10 μM or 100 μM, diluted in 3-fold to give 8 or 10 concentration points. In addition to the control wells, 2 μl of the diluted test compound solution was added to the wells used, and 2 μl of the previously prepared 10% DMSO solution was added to the control wells. The BET Bromodomain Ligand and Non-acetylated Ligand 1 were respectively diluted in 40 fold with 1×BRD TR-FRET Assay Buffer. 5 μl of diluted BET Bromodomain Ligand was added to sample wells and positive control wells, and 5 μl of diluted non-acetylated ligand 1 was added into the negative control wells. 1×BRD TR-FRET Assay Buffer was used to dilute BRD4 (BD1+BD2) bromodomain protein to 6 ng/μl (18 ng/well), and 3 μl of diluted BRD4 (BD1+BD2) bromodomain protein was added to each well. The plate was sealed and mixed well. The reaction was performed at room temperature for 2 hours, and then fluorescence signals (320 nm stimulation, 665 nm, 615 nm emission) were detected with the ENVISION (Perkinelmer) instrument. The inhibition rate was calculated for each well by positive control wells and negative control wells, and average value was calculated for multiple wells. The results were plotted with Software PRISM 5.0 to fit the half inhibitory activity (IC50) for each test compound, Table 1.

MDA-MB-231 cell line = assay: Cell activity detection, CCK-8, MDA-MB-231; type: cell-based; conditions: Homo sapiens, CCK-8, 72 hours incubation
Protocol: MDA-MB-231 cell line was purchased from Shanghai Cell Resource Center of the Chinese Academy of Sciences, and was performed according to the method in the kit of CCK-8. The cells in the logarithmic growth phase were collected, counted, and the cells were re-suspended in complete medium to adjust the cell concentration to a suitable concentration (determined according to cell density optimization test results), inoculated in 96-well plates, and each well was added with 100 μl of cell suspension. Cells were incubated at 37° C., in a 100% relative humidity and 5% CO2 incubator for 24 hours. The compound was diluted to the appropriate effective concentration determined with medium and the cells were added by 25 μl/well. The final concentration of the compound was diluted to from 1 μM to 0 μM graded in three-fold dilution to give 10 concentration points. The cells were incubated at 37° C., in a 100% relative humidity and 5% CO2 incubator for 72 hours. 1/10 volume of CCK-8 was added directly to the cell culture medium and incubated in a 37° C. incubator for 2-4 hours. The absorbance at 450 nm was determined on a SpectraMax M5 Microplate Reader after gentle shaking. Absorbance at 650 nm was taken as the reference. The IC50 curve fitting was performed using soft Graphpad Prism 5 and the IC50 value was calculated.

H187 cell line = assay: Cell activity detection, Alamar-Blue, H187; type: cell-based; conditions: Homo sapiens, NCI-H187, 72 h incubation
Protocol: (§1) H211 and H187 cell lines were purchased from ATCC and tested in accordance with the Alamar-Blue test kit instructions. The drugs were dissolved in 50 mM stock solution with DMSO and stored in a freezer at −20° C. The test drug stock solution was serially diluted with DMSO graded in a ratio of 1:3. Then DMSO diluted drug was serially diluted into a drug solution in 10× final concentration with cell complete culture medium. The 96-well cell culture plate was removed from the incubator, and 10 μl of culture medium containing a series of different concentrations of drug (10× final concentration) was added to a 96-well plate, and incubated at 37° C. for 72 h in CO2 incubator. The inhibition rate was plotted using GraphPad Prism 5.0 and MATILAB software by a non-linear regression method to obtain a series of dose-response curves from which the IC50 of the test sample was obtained, Table 2.

H211 cell line = assay: Cell activity detection, Alamar-Blue, H211; type: cell-based; conditions: Homo sapiens, NCI-H211, 72 h incubation
Protocol: as §1

Cc1nnn(C)c1-c1cnc2c3c4c(ccc3n([C@H](c3ccccc3)C3CCOCC3)c2c1)cnn4C [Compound 7]
IC50 [1]: 5.2 nM
IC50 (MDA-MB-231 cell line): 4.6 nM
IC50 (H187 cell line): 6.5 nM
IC50 (H211 cell line): 3.5 nM

Cc1nnn(C)c1-c1cnc2c3c4c(ccc3n([C@H](c3ccccc3)C3CCOCC3)c2c1)C(=O)N(C)C4 [Compound 3]
IC50 [1]: 1.9 nM
IC50 (H187 cell line): 35 nM
IC50 (H211 cell line): 5.2 nM

Cc1nnn(C)c1-c1cnc2c3c4cn[nH]c4ccc3n([C@H](c3ccccc3)C3CCOCC3)c2c1 [Compound 11]
IC50 [1]: 1 nM
IC50 (MDA-MB-231 cell line): 3.7 nM
IC50 (H187 cell line): 5.5 nM
IC50 (H211 cell line): 4.2 nM

Cc1nnn(C)c1-c1cnc2c3c4cc[nH]c4ccc3n([C@H](c3ccccc3)C3CCOCC3)c2c1 [Compound 10]
IC50 [1]: 1.5 nM
IC50 (MDA-MB-231 cell line): 8.1 nM
IC50 (H187 cell line): 8.5 nM
IC50 (H211 cell line): 32 nM

Cc1nnn(C)c1-c1cnc2c3cc4c(cc3n([C@H](c3ccccc3)C3CCOCC3)c2c1)CN(C)C4=O [Compound 2]
IC50 [1]: 2.2 nM
IC50 (H187 cell line): 19 nM
IC50 (H211 cell line): 8.5 nM

[2H]C([2H])([2H])c1nnn(C)c1-c1cnc2c3c4cn[nH]c4ccc3n([C@H](c3ccccc3)C3CCOCC3)c2c1 [Compound 14]
IC50 [1]: 1 nM
IC50 (MDA-MB-231 cell line): 3.5 nM
IC50 (H187 cell line): 5.5 nM
IC50 (H211 cell line): 4 nM

Cc1nnn(C)c1-c1cnc2c3c4cnn(C)c4ccc3n([C@H](c3ccccc3)C3CCOCC3)c2c1 [Compound 6]
IC50 [1]: 1 nM
IC50 (MDA-MB-231 cell line): 1.6 nM
IC50 (H187 cell line): 5.5 nM
IC50 (H211 cell line): 2 nM

Cc1nnn(C)c1-c1cnc2c3cc4c(cnn4C)cc3n([C@H](c3ccccc3)C3CCOCC3)c2c1 [Compound 4]
IC50 [1]: 4.6 nM
IC50 (H187 cell line): 37 nM
IC50 (H211 cell line): 11.2 nM

Cc1nnn(C)c1-c1cnc2c3cc4c(cc3n([C@H](c3ccccc3)C3CCOCC3)c2c1)C(=O)N(C)C4 [Compound 1]
IC50 [1]: 3.6 nM
IC50 (H187 cell line): 21 nM
IC50 (H211 cell line): 7.2 nM

Cc1nnn(C)c1-c1cnc2c3c4cccnc4ccc3n([C@H](c3ccccc3)C3CCOCC3)c2c1 [Compound 12]
IC50 [1]: 3.2 nM
IC50 (H187 cell line): 7.5 nM
IC50 (H211 cell line): 12 nM

Cc1nnn(C)c1-c1cnc2c3cc4cnn(C)c4cc3n([C@H](c3ccccc3)C3CCOCC3)c2c1 [Compound 5]
IC50 [1]: 3.8 nM
IC50 (H187 cell line): 35 nM
IC50 (H211 cell line): 29.5 nM

Cc1nnn(C)c1-c1cnc2c3c4cnn(C)c4c(F)cc3n([C@H](c3ccccc3)C3CCOCC3)c2c1 [Compound 8]
IC50 [1]: 2.6 nM
IC50 (MDA-MB-231 cell line): 3.2 nM
IC50 (H187 cell line): 6.5 nM
IC50 (H211 cell line): 4.2 nM

[2H]C([2H])([2H])c1nnn(C)c1-c1cnc2c3c4cnn(C)c4ccc3n([C@H](c3ccccc3)C3CCOCC3)c2c1 [Compound 13]
IC50 [1]: 1 nM
IC50 (MDA-MB-231 cell line): 1.8 nM
IC50 (H187 cell line): 5.5 nM
IC50 (H211 cell line): 2 nM

Cc1nnn(C)c1-c1cnc2c3c4ccn(C)c4ccc3n([C@H](c3ccccc3)C3CCOCC3)c2c1 [Compound 9]
IC50 [1]: 3.5 nM
IC50 (H187 cell line): 7 nM
IC50 (H211 cell line): 6.7 nM
